Measured values as given in ChEMBL document CHEMBL1122198, “Synthesis and dopamine receptor binding of exo- and endo-2-amino-6,7-dihydroxybenzonorbornene, rigid analogues of 2-amino-6,7-dihydroxytetrahydronaphthalene” (J Med Chem, 1982).

Biological target: Dopamine receptor (Bos taurus, UniProt Q95136+P20288)
Experiment: Evaluated for the inhibition of binding of [3H]DA (dopamine) to dopamine receptor in calf striatal homogenate

NC1CCc2cc(O)c(O)cc2C1 (stereo unspecified)
IC50: 6 nM
